ChEMBL document CHEMBL2028040, “Malaria Box”
pEC50, pIC50: −log10 of the molar value.

Columns and labels:
Plasmodium falciparum [1] = test: MMV: Inhibition of Plasmodium falciparum 3D7 at 5uM compound concentration.; type: functional
Plasmodium falciparum [2] = test: MMV: Inhibition of Plasmodium falciparum 3D7 (EC50).; type: functional, organism-based
Plasmodium falciparum [3] = test: MMV: Inhibition of Plasmodium falciparum K1 (EC50).; type: functional, organism-based
Trypanosoma cruzi = test: MMV: Inhibition of Trypanosoma cruzi (Tulahuen C4 LacZ) (Chagas in vitro).; type: functional, organism-based
[4] = system: Trypanosoma brucei brucei; test: MMV: Inhibition of Trypanosoma brucei brucei (Squib 427) (HAT in vitro).; type: functional, organism-based
[5] = system: Trypanosoma brucei rhodesiense; test: MMV: Inhibition of Trypanosoma brucei rhodesiense (STIB 900) (HAT in vitro).; type: functional, organism-based
Leishmania infantum = test: MMV: Inhibition of Leishmania infantum (MHOM/MA/BE/67) in vitro.; type: functional, organism-based
[6] = MMV: Cytotoxicity against human fibroblasts (MRC-5) cells.; conditions: MRC-5 cells (human fibroblasts)

| Structure (SMILES) | pEC50 (Plasmodium falciparum [2]) | pEC50 (Plasmodium falciparum [3]) | pIC50 (Trypanosoma cruzi) | pIC50 [4] | pIC50 [5] | pIC50 (Leishmania infantum) | inhibition at 5 µM (Plasmodium falciparum [1]) [%] | pIC50 [6] |
| --- | --- | --- | --- | --- | --- | --- | --- | --- |
| O=C(Nc1ccc(Cl)c(Cl)c1)Nc1ccc(Cl)c(Cl)c1 | 5.94 | 5.90 | 5.42 | 5.60 | 5.66 | 4.98 | 96 | < 4.49 |
| CCOC(=O)C1=C(C)N=c2sc(=Cc3ccccc3O)c(=O)n2C1c1ccc(OC)c2ccccc12 (stereo not drawn) | 5.82 | 5.93 | < 4.49 | 4.77 | 5.13 | 4.79 | 97 | < 4.49 |
| CCOC(=O)C1CCN(C(=O)CN2C(=O)c3ccccc3C2c2c[nH]c3ccccc23)CC1 (stereo not drawn) | 5.93 | 5.57 | 4.83 | 4.79 | 4.86 | < 4.49 | 98 | < 4.49 |
| O=C(Nc1ccc(N2CCCCC2)c(Cl)c1)c1ccc(Br)o1 | 6.13 | 5.84 | 4.83 | 4.82 | 4.87 | < 4.49 | 96 | 4.57 |
| CCCCC(O)(c1ccc(Cl)cc1)C(CN1CCOCC1)c1ccc(Cl)cc1 (stereo not drawn) | 5.86 | 5.82 | 4.84 | 5.41 | 5.36 | 4.99 | 98 | < 4.49 |
| CC1CC2=C(CC1CNCCCN(C)C)C(C)(C)CCC2 (stereo not drawn) | 6.00 | 6.00 | 5.97 | > 6.90 | > 6.90 | 5.52 | 98 | 5.38 |
| CCCc1cc(O)c2c3c(c(=O)oc2c1)CN(C)CC3 | 6.84 | 7.09 | < 4.49 | < 4.49 | < 4.49 | < 4.49 | 97 | < 4.49 |
| OC(Cn1nnc2ccccc21)Cn1c2ccc(Br)cc2c2cc(Br)ccc21 (stereo not drawn) | 5.90 | 5.91 | < 4.49 | < 4.49 | < 4.49 | < 4.49 | 98 | < 4.49 |
| N=c1n(CCN2CCCCC2)c2ccccc2n1CC(O)c1cccc(Br)c1 (stereo not drawn) | 6.05 | 5.85 | 5.38 | 5.56 | 5.99 | 5.40 | 98 | 4.56 |
| Cc1c(C)n(CC(O)CNC2CCCCC2C)c2ccccc12 (stereo not drawn) | 6.11 | 6.36 | < 4.49 | 5.42 | 5.99 | < 4.49 | 96 | < 4.49 |
| CCOc1cc2c(cc1OCC)C(c1cc(Cl)ccc1O)NCC2 (stereo not drawn) | 6.13 | 6.69 | < 4.49 | 5.52 | 5.88 | < 4.49 | 98 | < 4.49 |
| CC1CCN(Cc2c(O)ccc3cc(-c4nc5ccccc5s4)c(=O)oc23)CC1 | 5.95 | 6.33 | 4.74 | 4.73 | > 6.90 | 4.72 | 91 | 4.63 |
| Oc1ccccc1CN1CCN(C(c2ccccc2)c2ccccc2)CC1 | 6.21 | 6.69 | 5.39 | 4.81 | 4.90 | 4.92 | 97 | < 4.49 |
| COc1cccc(NC(=O)Cn2c(C)c(C#N)c3ccccc32)c1 | 5.96 | 5.83 | < 4.49 | < 4.49 | 4.70 | < 4.49 | 95 | < 4.49 |
| COc1ccc(OC)c(C2C3=C(CC(C)(C)CC3=O)N(c3ccc(Cl)c(Cl)c3)C3=C2C(=O)CC(C)(C)C3)c1 | 6.04 | 5.97 | < 4.49 | 4.78 | 4.79 | < 4.49 | 90 | < 4.49 |

Now from value to compound, other results behind:

| pEC50 (Plasmodium falciparum [2]) | pEC50 (Plasmodium falciparum [3]) | pIC50 (Trypanosoma cruzi) | pIC50 [4] | pIC50 [5] | pIC50 (Leishmania infantum) | Structure (SMILES) | inhibition at 5 µM (Plasmodium falciparum [1]) [%] | pIC50 [6] |
| --- | --- | --- | --- | --- | --- | --- | --- | --- |
| 7.59 | 6.71 | < 4.49 | < 4.49 | < 4.49 | < 4.49 | CC1CN(C(=O)c2sc3ccccc3c2Cl)CC(C)O1 (stereo not drawn) | 95 | < 4.49 |
| 7.62 | 7.44 | < 4.49 | < 4.49 | 4.76 | < 4.49 | COc1cccc(C=Cc2nc(=O)c3ccccc3o2)c1OC | 96 | < 4.49 |
| 6.46 | 6.01 | 4.95 | 5.47 | 5.44 | 4.79 | COc1cc(-c2nc(-c3ccc(Sc4ccccc4)cc3)c(-c3ccccc3)[nH]2)cc(OC)c1O | 97 | 5.07 |
| 6.41 | 6.28 | 5.42 | 5.46 | 5.39 | < 4.49 | COc1cccc(C(=O)NC(c2ccc(C)cc2)c2cc(Cl)c3cccnc3c2O)c1 (stereo not drawn) | 97 | < 4.49 |
| 6.81 | 6.46 | < 4.49 | < 4.49 | 4.88 | < 4.49 | CCOC(=O)C1=C(c2ccccc2)N=c2sc(=Cc3cc(C)n(-c4ccc(F)cc4)c3C)c(=O)n2C1c1cccc(OC)c1OC (stereo not drawn) | 94 | < 4.49 |
| 6.52 | 6.18 | 5.72 | 5.98 | 6.07 | 5.92 | c1ccc2c(NCCc3c[nH]c4ccccc34)c3ccccc3nc2c1 | 97 | 5.40 |
| 6.26 | 6.00 | 4.72 | 4.94 | 5.17 | 4.99 | O=C(CCl)NCCOc1ccc(Cl)cc1Cl | 94 | 4.79 |
| 8.28 | 8.00 | > 6.90 | 6.00 | 6.50 | 5.52 | COc1ccccc1NC1=C(N2CCCCC2)C(=O)c2ccccc2C1=O | 98 | 5.01 |
| 6.40 | 5.95 | < 4.49 | 4.81 | 5.43 | < 4.49 | Cc1ccc(-c2cc3nc4c(c(O)n3n2)CCCC4)cc1 | 73 | < 4.49 |
| 6.35 | 5.89 | 4.78 | 4.80 | 4.79 | < 4.49 | COc1ccc(-c2nc(NC(=O)CS(=O)(=O)c3ccc(F)cc3)sc2C)cc1 | 97 | < 4.49 |
| 7.69 | 7.29 | < 4.49 | < 4.49 | < 4.49 | < 4.49 | COc1ccc(NC(=O)C2c3ccccc3C(=O)N(CC(C)C)C2c2cccs2)cc1Cl (stereo not drawn) | 100 | < 4.49 |
| 6.29 | 5.97 | < 4.49 | < 4.49 | 4.51 | < 4.49 | CCOc1c(Br)cc(C2C(C(=O)OC)=CN(C)C=C2C(=O)OC)cc1OC | 96 | < 4.49 |
| 6.71 | 7.24 | < 4.49 | < 4.49 | < 4.49 | < 4.49 | CCCN(CCC)CC(O)COc1ccccc1C(=O)Nc1ccccc1 (stereo not drawn) | 98 | < 4.49 |
| 6.34 | 5.79 | 4.78 | 4.78 | 5.39 | 4.79 | Cc1ccc(C2CC(C(F)(F)F)n3nc(C(=O)N4CCN(C(c5ccccc5)c5ccccc5)CC4)cc3N2)cc1 (stereo not drawn) | 98 | < 4.49 |
| 6.55 | 6.40 | < 4.49 | < 4.49 | < 4.49 | < 4.49 | Cc1ccc(N2C(=O)C3C(C2=O)C2(c4ccccc4)C(=O)C3(c3ccccc3)C(c3ccccc3)=C2c2ccccc2)cc1 (stereo not drawn) | 98 | < 4.49 |
| 6.41 | 6.84 | 4.72 | 4.87 | 5.05 | < 4.49 | CCCCCCc1cc2cc(-c3csc(C=Cc4ccccc4)n3)c(=O)oc2cc1O | 92 | < 4.49 |
| 7.43 | 7.32 | 6.87 | 6.06 | 6.66 | 5.52 | c1ccc(Cn2c(N=Nc3c(Nc4ccccc4)ccc4ccccc34)nc3ccccc32)cc1 | 96 | 6.41 |
| 6.50 | 6.30 | 5.43 | 5.42 | 5.40 | 5.39 | FC(F)(F)c1cccc(Nc2nc3ccccc3nc2Nc2cccc(C(F)(F)F)c2)c1 | 99 | 5.03 |
| 6.93 | 6.90 | < 4.49 | < 4.49 | < 4.49 | < 4.49 | CCOc1ccc(-c2nonc2NC(=O)c2cccc(C)c2)cc1OCC | 86 | < 4.49 |
| 6.57 | 7.00 | < 4.49 | 4.78 | 4.79 | 4.79 | Cc1cc(C)c2c(c1)OCN(Cc1ccccc1Cl)C2 | 98 | < 4.49 |
| 6.29 | 6.38 | 4.89 | < 4.49 | 4.81 | 4.65 | CCn1c(CN2CCN(Cc3ccccc3)CC2)nc2cc(NC(=O)c3cccs3)ccc21 | 97 | < 4.49 |
